According to patent US20260078119A1, “DEGRADER COMPOUNDS AND USES THEREOF” (Bristol-Myers Squibb Company, priority 2024, published 2026):

Columns and labels:
CAL-51 cells = test: CAL-51 Cell Proliferation Assay; assay type: cell-based; conditions: for EC50: Homo sapiens, 120 hours incubation, 10-point dose response, 4-fold dilutions starting at 10 μM, Cell-Titer-Glo, read-out: CAL-51 Prolif EC50; for CAL-51 Prolif Ymin: minimal percent of DMSO control observed in the concentrations tested (Ymin-obs), 120 hours
Method in brief: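 Cells seeded at 350/well in RPMI complete medium onto 10-point, 4-fold compound dilutions from 10 μM (0.1% DMSO), in duplicate, and grown 120 h at 37 °C. CellTiter-Glo luminescence, blank-subtracted and normalised to DMSO, was fitted with a four-parameter logistic to give EC50; Ymin-obs is the lowest observed percent of DMSO control.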

FAK = molecular target: T1, FAK (Homo sapiens, UniProt Q05397); test: FAK-HiBiT Degradation Assay; assay type: cell-based; conditions: for DC50: JHH-4-FAK-HiBiT clone d01 cells, two hours incubation, 10-point dose response, 3-fold dilution starting at 1 μM, Nano-Glo HiBiT luminescence, read-out: FAK HiBiT EC50; for FAK HiBiT Ymin: lower limit of the four parameter fit (value A), Ymax derived using DMSO control, JHH-4-FAK-HiBiT cells, two hours
T1 construct: homozygous knock-in of a HiBiT tag (Promega Corporation, Madison, WI) to the C-terminus of the FAK gene in its natural genomic locus; endogenous in cells; host or cells: JHH-4-FAK-HiBiT clone d01 (CRISPR-Cas9 knock-in at the endogenous locus)
Method in brief: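 JHH-4 cells with homozygous CRISPR knock-in of C-terminal HiBiT on endogenous FAK, treated 2 h at 37 °C with compounds in 10-point 3-fold series from 1 μM. HiBiT lytic luminescence read; EC50 from four-parameter logistic fit, Ymax set by DMSO control, Ymin as lower fit limit.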

T1 sequence (Q05397 whole entry): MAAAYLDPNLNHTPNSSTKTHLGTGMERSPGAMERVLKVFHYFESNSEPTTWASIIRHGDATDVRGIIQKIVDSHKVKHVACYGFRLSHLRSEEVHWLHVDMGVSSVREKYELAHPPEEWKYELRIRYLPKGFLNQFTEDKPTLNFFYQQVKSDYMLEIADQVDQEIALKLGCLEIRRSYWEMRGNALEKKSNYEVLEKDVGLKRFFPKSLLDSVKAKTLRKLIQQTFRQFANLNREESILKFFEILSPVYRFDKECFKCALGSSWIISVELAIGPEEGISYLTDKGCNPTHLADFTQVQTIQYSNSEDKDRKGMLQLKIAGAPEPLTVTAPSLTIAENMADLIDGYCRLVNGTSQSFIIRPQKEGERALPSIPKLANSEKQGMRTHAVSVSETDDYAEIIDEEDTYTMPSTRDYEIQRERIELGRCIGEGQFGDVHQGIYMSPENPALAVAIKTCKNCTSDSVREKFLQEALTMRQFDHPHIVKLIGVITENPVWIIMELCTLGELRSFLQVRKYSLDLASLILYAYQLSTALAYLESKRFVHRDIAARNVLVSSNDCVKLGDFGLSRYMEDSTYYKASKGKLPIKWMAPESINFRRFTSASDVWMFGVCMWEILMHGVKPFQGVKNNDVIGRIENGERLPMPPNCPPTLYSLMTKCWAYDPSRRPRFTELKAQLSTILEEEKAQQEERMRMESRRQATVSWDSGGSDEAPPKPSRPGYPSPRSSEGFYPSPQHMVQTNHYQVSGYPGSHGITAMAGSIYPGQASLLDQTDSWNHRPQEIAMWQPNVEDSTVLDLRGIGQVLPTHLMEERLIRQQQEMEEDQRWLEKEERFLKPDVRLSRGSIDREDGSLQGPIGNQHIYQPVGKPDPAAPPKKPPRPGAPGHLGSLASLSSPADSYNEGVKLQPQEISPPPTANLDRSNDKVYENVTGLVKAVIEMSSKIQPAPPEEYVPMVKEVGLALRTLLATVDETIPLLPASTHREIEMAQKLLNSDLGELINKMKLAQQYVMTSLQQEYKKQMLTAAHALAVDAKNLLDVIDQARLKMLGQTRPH

| SMILES | DC50 (FAK) [nM] | FAK HiBiT Ymin (FAK) | EC50 (CAL-51 cells) [nM] | CAL-51 Prolif Ymin (CAL-51 cells) |
| --- | --- | --- | --- | --- |
| O=C1CCC(N2Cc3cc(Cn4ncc5c(-c6ncccc6Cl)c(Cl)c(N6CC(F)C6)nc54)ccc3C2=O)C(=O)N1 (centres unmarked) [Example 38, 3-(5-{[5-chloro-4-(3-chloropyridin-2-yl)-6-(3-fluoroazetidin-1-yl)-1H-pyrazolo[3,4-b]pyridin-1-yl]methyl}-1-oxo-2,3-dihydro-1H-isoindol-2-yl)piperidine-2,6-dione] | 1.09 | 8.19 | 0.48 | 21.89 |
| CCOc1ccc(-c2cc(N3CC(F)C3)nc3c2cnn3Cc2ccc3c(c2)CN([C@H]2CCC(=O)NC2=O)C3=O)c(C)c1 [Example 39, (3S)-3-(5-{[4-(4-ethoxy-2-methylphenyl)-6-(3-fluoroazetidin-1-yl)-1H-pyrazolo[3,4-b]pyridin-1-yl]methyl}-1-oxo-2,3-dihydro-1H-isoindol-2-yl)piperidine-2,6-dione] | 1.12 | 7.78 | 0.82 | 28.13 |
| O=C1CCC(N2Cc3c(ccc(Cn4ncc5c(-c6ncc(C(F)(F)F)cc6Cl)cc(N6CC(F)C6)nc54)c3F)C2=O)C(=O)N1 (centres unmarked) [Example 40, 3-[5-({4-[3-chloro-5-(trifluoromethyl)pyridin-2-yl]-6-(3-fluoroazetidin-1-yl)-1H-pyrazolo[3,4-b]pyridin-1-yl}methyl)-4-fluoro-1-oxo-2,3-dihydro-1H-isoindol-2-yl]piperidine-2,6-dione] | 1.15 | 6.87 | 11.2 | 36.00 |
| N#Cc1ccc(-c2c(F)c(N3CC(F)C3)nc3c2cnn3Cc2ccc3c(c2)CN(C2CCC(=O)NC2=O)C3=O)c(F)c1 (centres unmarked) [Example 41, 4-(1-{[2-(2,6-dioxopiperidin-3-yl)-1-oxo-2,3-dihydro-1H-isoindol-5-yl]methyl}-5-fluoro-6-(3-fluoroazetidin-1-yl)-1H-pyrazolo[3,4-b]pyridin-4-yl)-3-fluorobenzonitrile] | 1.22 | 10.49 | 1.23 | 26.68 |
| O=C1CC[C@H](N2Cc3cc(Cn4ncc5c(-c6ncc(F)cc6Cl)cc(N6CC(F)C6)nc54)cc(F)c3C2=O)C(=O)N1 [Example 42, (3S)-3-(5-{[4-(3-chloro-5-fluoropyridin-2-yl)-6-(3-fluoroazetidin-1-yl)-1H-pyrazolo[3,4-b]pyridin-1-yl]methyl}-7-fluoro-1-oxo-2,3-dihydro-1H-isoindol-2-yl)piperidine-2,6-dione] | 1.24 | 5.70 | 1.92 | 24.80 |
| O=C1CCC(N2Cc3cc(Cn4ncc5c(-c6ncc(C(F)F)cc6Cl)cc(N6CC(F)C6)nc54)ccc3C2=O)C(=O)N1 (centres unmarked) [Example 43, 3-[5-({4-[3-chloro-5-(difluoromethyl)pyridin-2-yl]-6-(3-fluoroazetidin-1-yl)-1H-pyrazolo[3,4-b]pyridin-1-yl}methyl)-1-oxo-2,3-dihydro-1H-isoindol-2-yl]piperidine-2,6-dione] | 1.59 | 6.11 | 155 | 51.95 |
| CCOc1cnc(-c2cc(N3CC(F)C3)nc3c2cnn3Cc2ccc3c(c2)CN(C2CCC(=O)NC2=O)C3=O)c(Cl)c1 (centres unmarked) [Example 44, 3-(5-{[4-(3-chloro-5-ethoxypyridin-2-yl)-6-(3-fluoroazetidin-1-yl)-1H-pyrazolo[3,4-b]pyridin-1-yl]methyl}-1-oxo-2,3-dihydro-1H-isoindol-2-yl)piperidine-2,6-dione] | 1.73 | 11.00 | 0.69 | 28.22 |
| CC(C)Nc1cc(-c2ncc(C(F)(F)F)cc2Cl)c2cnn(Cc3ccc4c(c3)CN([C@H]3CCC(=O)NC3=O)C4=O)c2n1 [Example 45, (3S)-3-[5-({4-[3-chloro-5-(trifluoromethyl)pyridin-2-yl]-6-[(propan-2-yl)amino]-1H-pyrazolo[3,4-b]pyridin-1-yl}methyl)-1-oxo-2,3-dihydro-1H-isoindol-2-yl]piperidine-2,6-dione] | 1.76 | 6.88 | 0.76 | 30.48 |
| CCOc1cnc(-c2cc(N3CC(F)C3)nc3c2cnn3Cc2ccc3c(c2)CN(C2CCC(=O)NC2=O)C3=O)c(C#N)c1 (centres unmarked) [Example 46, 2-(1-{[2-(2,6-dioxopiperidin-3-yl)-1-oxo-2,3-dihydro-1H-isoindol-5-yl]methyl}-6-(3-fluoroazetidin-1-yl)-1H-pyrazolo[3,4-b]pyridin-4-yl)-5-ethoxypyridine-3-carbonitrile] | 1.79 | 8.57 | 0.91 | 30.10 |
| O=C1CC[C@H](N2Cc3cc(Cn4ncc5c(-c6ncc(Cl)cc6F)cc(N6CC(F)C6)nc54)ccc3C2=O)C(=O)N1 [Example 47, (3S)-3-(5-{[4-(5-chloro-3-fluoropyridin-2-yl)-6-(3-fluoroazetidin-1-yl)-1H-pyrazolo[3,4-b]pyridin-1-yl]methyl}-1-oxo-2,3-dihydro-1H-isoindol-2-yl)piperidine-2,6-dione] | 1.8 | 17.06 | 1.96 | 39.85 |
| O=C1CCC(N2Cc3cc(Cn4ncc5c(-c6ccc(C(F)(F)F)cc6Cl)cc(N6CC(F)C6)nc54)ccc3C2=O)C(=O)N1 (centres unmarked) [Example 48, 3-[5-({4-[2-chloro-4-(trifluoromethyl)phenyl]-6-(3-fluoroazetidin-1-yl)-1H-pyrazolo[3,4-b]pyridin-1-yl}methyl)-1-oxo-2,3-dihydro-1H-isoindol-2-yl]piperidine-2,6-dione] | 1.87 | 8.06 | 0.52 | 19.89 |
| O=C1CC[C@H](N2Cc3cc(Cn4ncc5c(-c6ncc(OC(F)F)cc6Cl)cc(N6CC(F)C6)nc54)ccc3C2=O)C(=O)N1 [Example 49, (3S)-3-[5-({4-[3-chloro-5-(difluoromethoxy)pyridin-2-yl]-6-(3-fluoroazetidin-1-yl)-1H-pyrazolo[3,4-b]pyridin-1-yl}methyl)-1-oxo-2,3-dihydro-1H-isoindol-2-yl]piperidine-2,6-dione] | 2 | 7.78 | 0.37 | 23.11 |

Second part, led by results:

| DC50 (FAK) [nM] | FAK HiBiT Ymin (FAK) | SMILES | EC50 (CAL-51 cells) [nM] | CAL-51 Prolif Ymin (CAL-51 cells) |
| --- | --- | --- | --- | --- |
| 2.23 | 5.82 | Cc1cc(Cl)cnc1-c1cc(N2CC(F)C2)nc2c1cnn2Cc1ccc2c(c1)CN([C@H]1CCC(=O)NC1=O)C2=O [Example 50, (3S)-3-(5-{[4-(5-chloro-3-methylpyridin-2-yl)-6-(3-fluoroazetidin-1-yl)-1H-pyrazolo[3,4-b]pyridin-1-yl]methyl}-1-oxo-2,3-dihydro-1H-isoindol-2-yl)piperidine-2,6-dione] | 2.12 | 27.72 |
| 2.23 | 10.32 | O=C1CC[C@H](N2Cc3cc(Cn4ncc5c(-c6ncc(F)cc6Cl)cc(N6CC(F)C6)nc54)ccc3C2=O)C(=O)N1 [Example 51, (3S)-3-(5-{[4-(3-chloro-5-fluoropyridin-2-yl)-6-(3-fluoroazetidin-1-yl)-1H-pyrazolo[3,4-b]pyridin-1-yl]methyl}-1-oxo-2,3-dihydro-1H-isoindol-2-yl)piperidine-2,6-dione] | 1.49 | 30.14 |
| 2.4 | 8.38 | O=C1CC[C@H](N2Cc3cc(Cn4ncc5c(-c6ccc(OCC(F)(F)F)cc6Cl)cc(N6CC(F)C6)nc54)ccc3C2=O)C(=O)N1 [Example 52, (3S)-3-[5-({4-[2-chloro-4-(2,2,2-trifluoroethoxy)phenyl]-6-(3-fluoroazetidin-1-yl)-1H-pyrazolo[3,4-b]pyridin-1-yl}methyl)-1-oxo-2,3-dihydro-1H-isoindol-2-yl]piperidine-2,6-dione] | 1.13 | 22.49 |
| 2.45 | 7.24 | CN(c1cc(-c2ncc(F)cc2Cl)c2cnn(Cc3ccc4c(c3)CN(C3CCC(=O)NC3=O)C4=O)c2n1)C(F)(F)F (centres unmarked) [Example 53, 3-(5-{[4-(3-chloro-5-fluoropyridin-2-yl)-6-[methyl (trifluoromethyl)amino]-1H-pyrazolo[3,4-b]pyridin-1-yl]methyl}-1-oxo-2,3-dihydro-1H-isoindol-2-yl)piperidine-2,6-dione] | 9.88 | 39.88 |
| 2.47 | 6.69 | CC(C)Oc1cnc(-c2cc(N3CC(F)C3)nc3c2cnn3Cc2ccc3c(c2)CN([C@H]2CCC(=O)NC2=O)C3=O)c(Cl)c1 [Example 54, (3S)-3-[5-({4-[3-chloro-5-(propan-2-yloxy)pyridin-2-yl]-6-(3-fluoroazetidin-1-yl)-1H-pyrazolo[3,4-b]pyridin-1-yl}methyl)-1-oxo-2,3-dihydro-1H-isoindol-2-yl]piperidine-2,6-dione] | 0.73 | 25.81 |
